Data from PubChem BioAssay AID248 (DTP/NCI, 2004).
Inconclusive results and toxic doses are left out. Cut-off read from the data, not from the text of the source: active = T/C of 150% or more; inactive = T/C below 125%.

Test system: L1210 leukemia ip in BDF1 mice, survival T/C
Experiment: NCI In Vivo Anticancer Drug Screen. Data for tumor model L1210 Leukemia (intraperitoneal) in B6D2F1 (BDF1) mice
Settings: endpoint: mean survival time, higher = longer survival
In short: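 Tumor was transplanted into mice, which were then dosed with test compound or vehicle alone. Survival was recorded for each group, and the treated figure was expressed relative to the control figure.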

[1] = dose: 75.0 mg/kg/injection, schedule: Q01DX001 (ip), vehicle: saline
[2] = dose: 75.0 mg/kg/injection, schedule: Q04DX003 (ip), vehicle: saline
[3] = dose: 150.0 mg/kg/injection, schedule: Q01DX001 (ip), vehicle: saline
[4] = dose: 300.0 mg/kg/injection, schedule: Q01DX001 (ip), vehicle: saline
[5] = dose: 12.5 mg/kg/injection, schedule: Q01DX001 (ip), vehicle: saline
[6] = dose: 25.0 mg/kg/injection, schedule: Q01DX001 (ip), vehicle: saline
[7] = dose: 25.0 mg/kg/injection, schedule: Q04DX003 (ip), vehicle: saline
[8] = dose: 50.0 mg/kg/injection, schedule: Q01DX001 (ip), vehicle: saline
[9] = dose: 50.0 mg/kg/injection, schedule: Q04DX003 (ip), vehicle: saline
[10] = dose: 100.0 mg/kg/injection, schedule: Q01DX001 (ip), vehicle: saline
[11] = dose: 100.0 mg/kg/injection, schedule: Q04DX003 (ip), vehicle: saline
[12] = dose: 200.0 mg/kg/injection, schedule: Q04DX003 (ip), vehicle: saline
[13] = dose: 100.0 mg/kg/injection, schedule: Q04DX003 (ip), vehicle: Klucel (hydroxypropylcellulose) (HPC)
[14] = dose: 200.0 mg/kg/injection, schedule: Q04DX003 (ip), vehicle: Klucel (hydroxypropylcellulose) (HPC)
[15] = dose: 400.0 mg/kg/injection, schedule: Q04DX003 (ip), vehicle: Klucel (hydroxypropylcellulose) (HPC)
[16] = dose: 200.0 mg/kg/injection, schedule: Q01DX001 (ip), vehicle: saline
[17] = dose: 400.0 mg/kg/injection, schedule: Q01DX001 (ip), vehicle: saline

Measured: T/C

CCOC(=O)CCC(NC(=O)c1ccc(N(C)S(=O)(=O)c2ccc(C)cc2)c(F)c1)C(=O)OCC (stereo unspecified)
inactive: [1] 100 % of control | [2] 103 % of control | [3] 98 % of control | dose: 150.0 mg/kg/injection, schedule: Q04DX003 (ip), vehicle: saline 95 % of control | [4] 96 % of control | dose: 300.0 mg/kg/injection, schedule: Q04DX003 (ip), vehicle: saline 103 % of control

ClCc1c2ccccc2cc2ccccc12
inactive: dose: 6.25 mg/kg/injection, schedule: Q04DX002 (ip), vehicle: saline with Tween-80 101 % of control | dose: 12.5 mg/kg/injection, schedule: Q04DX002 (ip), vehicle: saline with Tween-80 101 % of control

COc1ccc(C2C3CCC(C3)C2C(C)=O)cc1 (stereo unspecified)
inactive: dose: 100.0 mg/kg/injection, schedule: Q01DX001 (ip), vehicle: saline with Tween-80 101 % of control | dose: 200.0 mg/kg/injection, schedule: Q01DX001 (ip), vehicle: saline with Tween-80 90 % of control | dose: 400.0 mg/kg/injection, schedule: Q01DX001 (ip), vehicle: saline with Tween-80 92 % of control

C/C(=N\[N+](C)(C)C)c1ccc(C)cc1
inactive: [5] 112 % of control | [6] 104 % of control | [7] 107 % of control | [8] 108 % of control | [9] 100 % of control | [10] 101 % of control | [11] 105 % of control

C=CCN1CCC(C(=O)OC)(c2ccccc2)CC1
inactive: [11] 96 % of control | [12] 103 % of control

CC(=O)N(C)c1ccc(/C=C2\C=Cc3ccccc32)cc1
inactive: dose: 50.0 mg/kg/injection, schedule: Q01DX001 (ip), vehicle: carboxymethylcellulose (CMC) 96 % of control | dose: 100.0 mg/kg/injection, schedule: Q01DX001 (ip), vehicle: carboxymethylcellulose (CMC) 98 % of control | dose: 200.0 mg/kg/injection, schedule: Q01DX001 (ip), vehicle: carboxymethylcellulose (CMC) 96 % of control | dose: 400.0 mg/kg/injection, schedule: Q01DX001 (ip), vehicle: carboxymethylcellulose (CMC) 96 % of control

OC1CC2CC1C=C2c1ccccc1 (stereo unspecified)
inactive: dose: 100.0 mg/kg/injection, schedule: Q04DX003 (ip), vehicle: saline with Tween-80 102 % of control | dose: 200.0 mg/kg/injection, schedule: Q04DX003 (ip), vehicle: saline with Tween-80 86 % of control | dose: 400.0 mg/kg/injection, schedule: Q04DX003 (ip), vehicle: saline with Tween-80 91 % of control

COc1ccc(OC)c(/C=C/C(=O)c2ccc(Cl)cc2)c1
inactive: [13] 94 % of control | [14] 94 % of control | [15] 97 % of control

Clc1ccc(Cl)c(SSc2cc(Cl)ccc2Cl)c1
inactive: [10] 101 % of control | [16] 98 % of control | [17] 89 % of control

COc1cc(C=O)c([N+](=O)[O-])cc1OC
inactive: [10] 102 % of control | [16] 102 % of control

CCCCCCCCCCCCCCCCCSc1cccc(C)c1
inactive: [13] 93 % of control | [14] 88 % of control

CN1CCCC1CCCl (stereo unspecified)
inactive: [5] 97 % of control | dose: 12.5 mg/kg/injection, schedule: Q04DX003 (ip), vehicle: saline 88 % of control | [6] 100 % of control | [7] 95 % of control | [8] 100 % of control | [9] 95 % of control | [2] 100 % of control

Cc1ccccc1N=Cc1ccc2c(c1)OCO2
inactive: dose: 50.0 mg/kg/injection, schedule: Q01DX009 (ip), vehicle: Klucel (hydroxypropylcellulose) (HPC) 106 % of control | dose: 100.0 mg/kg/injection, schedule: Q01DX009 (ip), vehicle: Klucel (hydroxypropylcellulose) (HPC) 96 % of control | [13] 98 % of control | dose: 200.0 mg/kg/injection, schedule: Q01DX009 (ip), vehicle: Klucel (hydroxypropylcellulose) (HPC) 106 % of control | [14] 89 % of control | [15] 110 % of control

N#Cc1[nH]cnc1/N=N/N(CCF)CCF
inactive: dose: 9.5 mg/kg/injection, schedule: Q01DX009 (ip), vehicle: saline with Tween-80 101 % of control | dose: 18.0 mg/kg/injection, schedule: Q01DX009 (ip), vehicle: saline with Tween-80 121 % of control | dose: 18.0 mg/kg/injection, schedule: Q04DX003 (ip), vehicle: saline with Tween-80 98 % of control | dose: 37.0 mg/kg/injection, schedule: Q04DX003 (ip), vehicle: saline with Tween-80 116 % of control

CCCCCCCCCCCCCCCCCC[n+]1cccc(C#N)c1
inactive: dose: 5.0 mg/kg/injection, schedule: Q01DX009 (ip), vehicle: saline 98 % of control | dose: 10.0 mg/kg/injection, schedule: Q01DX001 (ip), vehicle: saline 93 % of control | dose: 10.0 mg/kg/injection, schedule: Q01DX009 (ip), vehicle: saline 92 % of control | dose: 10.0 mg/kg/injection, schedule: Q04DX003 (ip), vehicle: saline 105 % of control | dose: 20.0 mg/kg/injection, schedule: Q01DX001 (ip), vehicle: saline 91 % of control | dose: 20.0 mg/kg/injection, schedule: Q04DX003 (ip), vehicle: saline 97 % of control | dose: 40.0 mg/kg/injection, schedule: Q01DX001 (ip), vehicle: saline 91 % of control | dose: 40.0 mg/kg/injection, schedule: Q04DX003 (ip), vehicle: saline 114 % of control

O=c1[nH]cccc1CCc1ccccc1
inactive: [10] 103 % of control | [16] 105 % of control | [17] 111 % of control

CC(CS(=O)(=O)O)N1CCOCC1 (stereo unspecified)
inactive: dose: 100.0 mg/kg/injection, schedule: Q01DX009 (ip), vehicle: saline 95 % of control | [11] 100 % of control | dose: 200.0 mg/kg/injection, schedule: Q01DX009 (ip), vehicle: saline 98 % of control | [12] 101 % of control | dose: 400.0 mg/kg/injection, schedule: Q01DX009 (ip), vehicle: saline 102 % of control | dose: 400.0 mg/kg/injection, schedule: Q04DX003 (ip), vehicle: saline 97 % of control

CC(C)CCC(C)(C)C1=CC(=O)C=CC1=O
inactive: dose: 100.0 mg/kg/injection, schedule: Q04DX002 (ip), vehicle: saline with Tween-80 93 % of control | dose: 200.0 mg/kg/injection, schedule: Q04DX002 (ip), vehicle: saline with Tween-80 90 % of control | dose: 400.0 mg/kg/injection, schedule: Q04DX002 (ip), vehicle: saline with Tween-80 93 % of control

CCCCC1(C(C)C)C(=O)NC(=O)NC1=O
inactive: [1] 102 % of control | [3] 96 % of control

CSc1nc(N)nc2c1ncn2C1OC(CO)C(O)C1O (stereo unspecified)
inactive: dose: 63.0 mg/kg/injection, schedule: Q01DX009 (ip), vehicle: saline 98 % of control | [10] 105 % of control | dose: 108.0 mg/kg/injection, schedule: Q01DX009 (ip), vehicle: saline 98 % of control | dose: 178.0 mg/kg/injection, schedule: Q01DX001 (ip), vehicle: saline 110 % of control | dose: 180.0 mg/kg/injection, schedule: Q01DX009 (ip), vehicle: saline 118 % of control | [16] 112 % of control | dose: 267.0 mg/kg/injection, schedule: Q01DX001 (ip), vehicle: saline 121 % of control

O=C(O)CC(O)c1ccccc1 (stereo unspecified)
inactive: [1] 109 % of control | [3] 93 % of control | [4] 112 % of control
